Results as given in PMC5104769, “Concentration-Dependent Dual Mode of Zn Action at Serotonin 5-HT1A Receptors: In Vitro and In Vivo Studies” (Molecular neurobiology, 2015).

How the values were obtained:
Body temperature in rats = format: in vivo, rat; details: Zn: 30 min at 7.5 and 11.5 mg/kg, 60 min at 5, 7.5 and 11.5 mg/kg
Description: The experiments were performed on male Albino Swiss mice (23–25 g) and Sprague Dawley rats (200–250 g) from Charles River, Germany as well as TPH2-Cre-ER^T2 x flx-5-HT1A-flx-YFP mice from Jackson Labs, Bangor ME and the Hen lab, respectively. The animals were kept under standard laboratory conditions with respect to lighting (light phase 7:00–19:00) and temperature (19–21 °C). Food and water were freely available. Each experimental group consisted of eight to ten animals. All of the animals were experimentally naive and were used only once in each test. The experiments were performed during the light period (9:00–14:00 h). All of the procedures were conducted according to the guidelines of the National Institutes of Health Animal Care and Use Committee and were approved by the Ethics Committees of the Institute of Pharmacology, Polish Academy of Sciences in Krakow and the Animal Care Committee, University of Ottawa. […]
The effects of Zn (2, 5, 7.5 and 11.5 mg Zn/kg for rats and 2 and 5 mg/kg for mice, given as a Zn hydroaspartate), 8-OH-DPAT (5 mg/kg) and WAY-100635 (0.1mg/kg) on rectal body temperature were recorded 30 and 60 min after their acute administration. The results were expressed as a change in body temperature with respect to the basal body temperature, which was measured at the beginning of the experiments.

Sprague Dawley rats = assay: Forced swim test (FST) in rats; format: in vivo, rat
Description: The test was carried out according to the method described previously [10]. On day one of the experiment, the animals were individually placed in plexiglass cylinders (40 cm in height, 18 cm in diameter), containing 25 cm of water maintained at 24–25 °C for a 15-min habituation period. After the rats were removed from the water, they were again placed in their home cages. On the second day, the rats were again placed in the cylinders, and the total duration of immobility was measured for a 5-min test period. Zn (1 or 2 mg Zn/ kg, given as Zn hydroaspartate) and 8-OH-DPAT (0.1 or 0.3 mg/kg) were administered alone or jointly 30 min before the test. WAY-100635 (0.1 mg/kg) was administered 15 min before the Zn treatment.

5-HT3 receptor = test system: 5-HT3 receptor; parameters: method as in PMID 7620711; details: electrophysiology, cited from earlier work
β2 adrenergic receptors = test system: β2 adrenergic receptors; parameters: method as in PMID 11752207; details: cited from earlier work

[Zn+2] [Zn, Zinc]
change in body temperature (Body temperature in rats): significantly decreased the body temperature
immobility time in the FST (Sprague Dawley rats; Zn 1 mg/kg, 30 min before test (Fig. 5a)): not 1 mg/kg significantly decreased the immobility time
immobility time in the FST (Sprague Dawley rats; Zn 2 mg/kg, 30 min before test (Fig. 5a)): significantly decreased the immobility time
immobility time in the FST (Sprague Dawley rats; Zn 2 and 5 mg/kg (Fig. 5b)): significantly decreased the immobility time
immobility time in the FST (Sprague Dawley rats; Zn given jointly with 8-OH-DPAT at doses ineffective alone, vs VEH): significantly decreased the immobility time
Zn concentrations that depressed the 5-HT-induced response (5-HT3 receptor; high concentrations): 30 to 200 µM
Zn concentrations that enhanced the 5-HT-induced response (5-HT3 receptor; low concentrations): 0.3 to 10 µM
effect on agonist affinity (β2 adrenergic receptors; 5 μM of Zn): enhanced agonist affinity
effect on antagonist binding (β2 adrenergic receptors; 500 μM of Zn): inhibited antagonist binding
